Values quoted from earlier work as cited in patent US20210228483A1, “LOW GLYCEMIC GUMMY COMPOSITION AND METHODS OF MAKING AND USING THEREOF” (Seattle Gummy Company, priority 2018, published 2021).

Columns and labels:
[1] = in vivo
blood glucose levels = conditions: as shown in FIG. 3 (trehalose) and FIG. 4 (isomaltulose)

Compound	GI value (glycemic index) [1]	spike in glucose levels (blood glucose levels)
OC[C@H]1O[C@H](OC[C@H]2OC(O)(CO)[C@@H](O)[C@@H]2O)[C@H](O)[C@@H](O)[C@@H]1O (stereo partly shown) [isomaltulose]	about 30	does not cause a spike in glucose levels
OC[C@H]1O[C@@](CO)(O[C@H]2O[C@H](CO)[C@@H](O)[C@H](O)[C@H]2O)[C@@H](O)[C@@H]1O [sucrose, reference compound]	63	
OC[C@H]1O[C@H](O[C@H]2O[C@H](CO)[C@@H](O)[C@H](O)[C@H]2O)[C@H](O)[C@@H](O)[C@@H]1O [trehalose]		does not cause a spike in glucose levels
